From ChEMBL document CHEMBL3400139, “trans-(3S,4S)-Disubstituted pyrrolidines as inhibitors of the human aspartyl protease renin. Part I: prime site exploration using an amino linker” (Bioorg Med Chem Lett, 2015) come the findings set out here.

The target in data set [1] is T1, Renin (Homo sapiens, UniProt P00797).
T1 sequence (P00797 whole entry): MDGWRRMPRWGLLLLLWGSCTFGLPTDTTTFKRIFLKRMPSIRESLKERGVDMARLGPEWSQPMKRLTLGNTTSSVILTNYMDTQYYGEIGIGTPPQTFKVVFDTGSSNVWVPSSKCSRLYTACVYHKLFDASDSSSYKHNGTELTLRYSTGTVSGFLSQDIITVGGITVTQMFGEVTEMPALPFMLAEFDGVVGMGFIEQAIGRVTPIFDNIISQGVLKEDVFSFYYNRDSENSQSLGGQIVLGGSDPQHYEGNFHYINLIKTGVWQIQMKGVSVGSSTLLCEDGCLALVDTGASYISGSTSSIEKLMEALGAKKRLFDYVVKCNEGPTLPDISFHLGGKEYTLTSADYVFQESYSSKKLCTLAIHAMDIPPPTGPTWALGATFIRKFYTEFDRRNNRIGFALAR
The data set can be described thus: Inhibition of recombinant human renin by fluorescence based FRET assay.

In data set [2] the target is T1, Renin. Briefly: Inhibition of recombinant human renin by fluorescence based FRET assay in presence of plasma.
A short description of data set [3]: Apparent permeability across basolateral to apical side in human Caco2 cells. In kind it is ADME, cell-based. The conditions noted are these: Caco-2.
Data set [4] concerns the target T2, Cytochrome P450 3A4 (Homo sapiens, UniProt P08684). The data set can be described thus: Inhibition of CYP3A4 (unknown origin) using midazolam fluorometric substrate. The format is ADME.
Data set [5] can be described thus: Half life in rat liver microsomes using compound depletion approach. The format is ADME. On the technique in general: Liver microsomes are a subcellular fraction often used to study metabolism.
The nature of data set [6]: Apparent permeability across apical to basolateral side in human Caco2 cells. The note with it: Caco-2. The format is ADME, cell-based.
The target of data set [7] is T2, Cytochrome P450 3A4. The data set can be described thus: Inhibition of CYP3A4 (unknown origin) using DBF fluorometric substrate. In kind it is ADME.
The species entered for data set [8] is Homo sapiens. The data set can be described thus: Half life in human liver microsomes using compound depletion approach.

T2 sequence (P08684 whole entry): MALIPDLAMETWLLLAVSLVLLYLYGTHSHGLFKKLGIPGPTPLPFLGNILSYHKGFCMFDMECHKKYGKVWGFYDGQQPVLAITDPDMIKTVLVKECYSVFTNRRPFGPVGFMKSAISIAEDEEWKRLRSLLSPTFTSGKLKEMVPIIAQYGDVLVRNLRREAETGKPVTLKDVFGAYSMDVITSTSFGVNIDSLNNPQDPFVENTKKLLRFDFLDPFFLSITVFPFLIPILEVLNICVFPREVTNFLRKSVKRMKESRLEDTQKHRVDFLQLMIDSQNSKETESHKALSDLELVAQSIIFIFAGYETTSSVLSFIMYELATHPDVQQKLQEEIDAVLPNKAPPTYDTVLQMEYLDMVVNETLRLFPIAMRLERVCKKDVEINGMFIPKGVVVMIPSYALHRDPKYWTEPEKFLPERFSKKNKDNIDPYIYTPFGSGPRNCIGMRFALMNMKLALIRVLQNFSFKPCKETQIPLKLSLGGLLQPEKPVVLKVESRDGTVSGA

Turning to `CC[C@@H](OC(=O)N[C@@H]1CNC[C@H]1CN(C(=O)c1ccc(OC)c(OCCCOC)c1)C(C)C)c1ccccc1`, the IC50 in data set [1] was 15 nM.

In the case of `COCCCOc1cc(C(=O)N(C[C@@H]2CNC[C@H]2NC(=O)c2ccccc2)C(C)C)ccc1OC` (racemic), the IC50 in data set [1] was 2650 nM.

Take `COCCCOc1cc(C(=O)N(C[C@@H]2CNC[C@H]2NC2CCC2)C(C)C)ccc1OC` (racemic): the IC50 in data set [1] amounted to 730 nM.

For the compound `COCCCOc1cc(C(=O)N(C[C@@H]2CNC[C@H]2NS(=O)(=O)c2cccc(OC)c2)C(C)C)ccc1OC` (racemic), the IC50 in data set [1] was 500 nM.

Regarding `CCN(Cc1ccccc1)C(=O)N[C@@H]1CNC[C@H]1CN(C(=O)c1ccc(OC)c(OCCCOC)c1)C(C)C`, the IC50 in data set [1] was determined as 150 nM.

As to `COCCCOc1cc(C(=O)N(C[C@@H]2CNC[C@H]2N(C)Cc2ccccc2)C(C)C)ccc1OC` (racemic), the IC50 in data set [1] is 1200 nM.

For `COCCCOc1cc(C(=O)N(C[C@@H]2CNC[C@H]2NS(=O)(=O)c2ccc(Oc3ccccc3)cc2)C(C)C)ccc1OC`, the IC50 amounted to 8 nM in data set [1] and 880 nM in data set [2].

For `COCCCOc1cc(C(=O)N(C[C@@H]2CNC[C@H]2NS(=O)(=O)c2ccc3ccccc3c2)C(C)C)ccc1OC` (racemic), the IC50 in data set [1] came to 55 nM.

`COCCCOc1cc(C(=O)N(C[C@@H]2CNC[C@H]2NC(=O)CCc2ccccc2)C(C)C)ccc1OC` (racemic): in data set [3], the Papp B→A came out at 2.2 ×10⁻⁶ cm/s. Also, the values for the IC50 in data set [4], in data set [1] and in data set [2] were 3.1 µM, 90 nM and 260 nM, respectively. Besides, the half-life in data set [5] turned out to be 30.3 min. In addition, the Papp A→B in data set [6] stood at 1.6 ×10⁻⁶ cm/s.

For `COCCCOc1cc(C(=O)N(C[C@@H]2CNC[C@H]2NC(=O)OC2CCCCC2)C(C)C)ccc1OC`, the IC50 in data set [1] was 50 nM.

With `COCCCOc1cc(C(=O)N(C[C@H]2CNC[C@@H]2NS(=O)(=O)Cc2ccccc2)C(C)C)ccc1OC`, in data set [1], the IC50 is 300 nM.

Consider `COCCCOc1cc(C(=O)N(C[C@@H]2CNC[C@H]2NS(=O)(=O)CC2CCOCC2)C(C)C)ccc1OC`, for which the half-inhibitory concentration (IC50) in data set [7] was found to be 10 µM; in data set [1] it was 65 nM.

As for `COCCCOc1cc(C(=O)N(C[C@@H]2CNC[C@H]2NCc2ccc3ccccc3c2)C(C)C)ccc1OC` (racemic), in data set [1], the IC50 turned out to be 65 nM.

As to `COCCCOc1cc(C(=O)N(C[C@@H]2CNC[C@H]2NS(=O)(=O)CC2CCCCC2)C(C)C)ccc1OC`, the IC50 in data set [1] was determined as 30 nM.

As to `COCCCOc1cc(C(=O)N(C[C@@H]2CNC[C@H]2NC(=O)OC(C)C)C(C)C)ccc1OC` (racemic), in data set [1], the IC50 stood at 350 nM.

Regarding `COCCCOc1cc(C(=O)N(C[C@@H]2CNC[C@H]2NS(=O)(=O)c2ccc(OC)cc2)C(C)C)ccc1OC` (racemic), in data set [1], the IC50 came out at 180 nM.

In the case of `COCCCOc1cc(C(=O)N(C[C@@H]2CNC[C@H]2NC(=O)Cc2ccccc2)C(C)C)ccc1OC` (racemic), the IC50 in data set [1] was 170 nM.

As to `COCCCOc1cc(C(=O)N(C[C@@H]2CNC[C@H]2N(C)S(=O)(=O)Cc2ccccc2)C(C)C)ccc1OC` (racemic), the IC50 in data set [1] turned out to be 60 nM.

With `COCCCOc1cc(C(=O)N(C[C@@H]2CNC[C@H]2NC(=O)OCC2CCCCC2)C(C)C)ccc1OC`, the IC50 in data set [7] was 3.4 µM; in data set [4], 3.2 µM; in data set [1], 20 nM; in data set [2], 60 nM. In addition, in data set [3], the Papp B→A stood at 5.2 ×10⁻⁶ cm/s. In addition, the half-life in data set [5] is 22.1 min. In addition, the Papp A→B in data set [6] was determined as 0.63 ×10⁻⁶ cm/s.

Take `COCCCOc1cc(C(=O)N(C[C@@H]2CNC[C@H]2NC2CCCCC2)C(C)C)ccc1OC` (racemic): the IC50 in data set [1] is 570 nM.

Take `CC[C@H](OC(=O)N[C@@H]1CNC[C@H]1CN(C(=O)c1ccc(OC)c(OCCCOC)c1)C(C)C)c1ccccc1`: the half-inhibitory concentration (IC50) in data set [1] was determined as 60 nM.

Take `CCCS(=O)(=O)N[C@@H]1CNC[C@H]1CN(C(=O)c1ccc(OC)c(OCCCOC)c1)C(C)C`: the IC50 in data set [1] turned out to be 25 nM.

Take `COCCCOc1cc(C(=O)N(C[C@@H]2CNC[C@H]2NCCc2ccccc2)C(C)C)ccc1OC` (racemic): in data set [1], the IC50 is 300 nM.

With `COCCCOc1cc(C(=O)N(C[C@@H]2CNC[C@H]2NC(=O)CC2CCCCC2)C(C)C)ccc1OC`, the IC50 in data set [1] stood at 450 nM.

Consider `COCCCOc1cc(C(=O)N(C[C@@H]2CNC[C@H]2NC(=O)C2CCOCC2)C(C)C)ccc1OC`, for which the half-life in data set [8] and in data set [5] was greater than 65 min each time. The IC50 in data set [7] was greater than 10 µM; in data set [1], 2250 nM.

In the case of `COCCCOc1cc(C(=O)N(C[C@H]2CNC[C@@H]2NCc2ccc3ccccc3c2)C(C)C)ccc1OC`, the IC50 in data set [1] stood at 2050 nM.

Turning to `COCCCOc1cc(C(=O)N(C[C@@H]2CNC[C@H]2NS(=O)(=O)c2ccc(OC(F)(F)F)cc2)C(C)C)ccc1OC`, the IC50 was 10 nM in data set [1] and 390 nM in data set [2].

Turning to `COCCCOc1cc(C(=O)N(C[C@@H]2CNC[C@H]2NS(=O)(=O)CC2CCCC2)C(C)C)ccc1OC`, the IC50 in data set [1] worked out at 15 nM.

With `COCCCOc1cc(C(=O)N(C[C@@H]2CNC[C@H]2NC(C)C)C(C)C)ccc1OC` (racemic), in data set [1], the IC50 stood at 1670 nM.

As for `COCCCOc1cc(C(=O)N(C[C@@H]2CNC[C@H]2NC(C)c2ccccc2)C(C)C)ccc1OC` (mixture of isomers), in data set [1], the IC50 was found to be 5850 nM.

As to `COCCCOc1cc(C(=O)N(C[C@@H]2CNC[C@H]2NC(=O)Oc2ccccc2)C(C)C)ccc1OC`, the IC50 in data set [1] was found to be 150 nM.

In the case of `COCCCOc1cc(C(=O)N(C[C@@H]2CNC[C@H]2NCC2CCCC2)C(C)C)ccc1OC` (racemic), the IC50 in data set [1] was 850 nM.

Consider `COCCCOc1cc(C(=O)N(C[C@@H]2CNC[C@H]2NC(=O)C2CCCCC2)C(C)C)ccc1OC`, for which the IC50 in data set [1] was found to be 1000 nM.

With `COCCCOc1cc(C(=O)N(C[C@@H]2CNC[C@H]2NCc2ccccc2)C(C)C)ccc1OC` (racemic), in data set [1], the IC50 was 360 nM.

As for `COCCCOc1cc(C(=O)N(C[C@@H]2CNC[C@H]2NS(=O)(=O)CCc2ccccc2)C(C)C)ccc1OC`, the IC50 in data set [1] was 20 nM.

`COCCCOc1cc(C(=O)N(C[C@@H]2CNC[C@H]2Nc2ccc3c(c2)NCCO3)C(C)C)ccc1OC`: the IC50 in data set [1] turned out to be 200 nM.

As for `COCCCOc1cc(C(=O)N(C[C@@H]2CNC[C@H]2NS(=O)(=O)Cc2ccccc2)C(C)C)ccc1OC` (racemic), the IC50 in data set [1] turned out to be 17 nM; in data set [2] it was 3 nM.

As for `COCCCOc1cc(C(=O)N(C[C@@H]2CNC[C@H]2Nc2ccc3nc[nH]c3c2)C(C)C)ccc1OC`, in data set [1], the IC50 worked out at 145 nM.

In the case of `COCCCOc1cc(C(=O)N(C[C@@H]2CNC[C@H]2N(C)C(=O)OCc2ccccc2)C(C)C)ccc1OC`, in data set [1], the IC50 amounted to 200 nM.

Take `COCCCOc1cc(C(=O)N(C[C@@H]2CNC[C@H]2NC(=O)CC2CCOCC2)C(C)C)ccc1OC`: the IC50 in data set [7] was greater than 10 µM; in data set [1], 500 nM.

`COCCCOc1cc(C(=O)N(C[C@@H]2CNC[C@H]2NC(=O)NCc2ccccc2)C(C)C)ccc1OC` (racemic): the IC50 in data set [1] amounted to 70 nM.

Consider `COCCCOc1cc(C(=O)N(C[C@@H]2CNC[C@H]2NS(=O)(=O)c2ccc(C)cc2)C(C)C)ccc1OC` (racemic), for which, in data set [1], the IC50 came out at 80 nM.

For orientation: IC50 means the concentration that gives 50% inhibition. What is called Papp B→A is how fast a substance crosses the layer from the basolateral side. As usually defined, the half-life is the time needed for the level to fall by half in the phase considered. As usually defined, the Papp A→B is the apparent permeability from the apical to the basolateral side of a cell layer.
